{
  "source": "ChEMBL document CHEMBL4665673",
  "about": "“Monomeric Targeted Protein Degraders” (J Med Chem, 2020)",
  "key": {"[1]": {"biological_target": "Baculoviral IAP repeat-containing protein 2 (Homo sapiens, UniProt Q13490)", "assay": "Binding affinity to c-IAP1-BIR3 (unknown origin) (124 to 240 residues) expressed in Escherichia coli BL21-Gold (DE3) by surface plasmon resonance assay"}, "[2]": {"biological_target": "E3 ubiquitin-protein ligase XIAP (Homo sapiens, UniProt P98170)", "sequence (P98170 whole entry, the tested form may be a part)": "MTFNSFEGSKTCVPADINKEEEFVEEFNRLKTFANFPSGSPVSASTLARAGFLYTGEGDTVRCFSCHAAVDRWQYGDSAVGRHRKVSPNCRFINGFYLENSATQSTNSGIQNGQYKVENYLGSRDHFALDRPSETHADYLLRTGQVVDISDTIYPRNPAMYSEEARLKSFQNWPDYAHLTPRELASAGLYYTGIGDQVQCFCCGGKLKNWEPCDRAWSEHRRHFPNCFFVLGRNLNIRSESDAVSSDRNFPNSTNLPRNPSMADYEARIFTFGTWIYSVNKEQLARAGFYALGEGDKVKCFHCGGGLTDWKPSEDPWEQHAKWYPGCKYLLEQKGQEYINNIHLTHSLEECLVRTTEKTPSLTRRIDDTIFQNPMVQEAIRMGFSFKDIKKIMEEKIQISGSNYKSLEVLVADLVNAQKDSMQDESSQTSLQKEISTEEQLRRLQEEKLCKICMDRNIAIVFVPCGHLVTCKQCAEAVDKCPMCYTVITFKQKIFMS", "assay": "Binding affinity to XIAP-BIR3 (unknown origin) (124 to 240 residues) expressed in Escherichia coli BL21-Gold (DE3) by surface plasmon resonance assay"}, "[3]": {"biological_target": "T1, B-cell lymphoma 6 protein (Homo sapiens, UniProt P41182, C67R/C84N/C8Q)", "assay": "Inhibition of BCL6 BTB domain (5 to 129 residues) C8Q/C67R/C84N triple mutant (unknown origin) expressed in Escherichia coli BL21(DE3) cells using 5-TAMRA-RSEIISTAPSSWVVPG incubated for 1 hr by fluorescence polarization assay"}, "[4]": {"biological_target": "B-cell lymphoma 6 protein (Homo sapiens) (UniProt P41182)", "assay": "Induction of BCL6 degradation in human SU-DHL-4 cells at 5 uM measured after 5 mins by capillary electrophoresis relative to control", "type": "cell-based"}, "[5]": {"biological_target": "B-cell lymphoma 6 protein (Homo sapiens) (UniProt P41182)", "assay": "Induction of BCL6 degradation in human SU-DHL-4 cells at 5 uM measured after 2 hrs by capillary electrophoresis relative to control", "type": "cell-based"}, "[6]": {"biological_target": "T1, B-cell lymphoma 6 protein", "assay": "Inhibition of BCOR peptide binding to BCL6 BTB domain (5 to 129 residues) C8Q/C67R/C84N triple mutant (unknown origin) expressed in Escherichia coli BL21(DE3) cells preincubated for 30 mins followed by BCOR ULight peptide addition and measured after 240 mins by TR-FRET assay"}, "[7]": {"biological_target": "Histone-lysine N-methyltransferase EZH2 (Homo sapiens, UniProt Q15910)", "sequence (Q15910 whole entry)": "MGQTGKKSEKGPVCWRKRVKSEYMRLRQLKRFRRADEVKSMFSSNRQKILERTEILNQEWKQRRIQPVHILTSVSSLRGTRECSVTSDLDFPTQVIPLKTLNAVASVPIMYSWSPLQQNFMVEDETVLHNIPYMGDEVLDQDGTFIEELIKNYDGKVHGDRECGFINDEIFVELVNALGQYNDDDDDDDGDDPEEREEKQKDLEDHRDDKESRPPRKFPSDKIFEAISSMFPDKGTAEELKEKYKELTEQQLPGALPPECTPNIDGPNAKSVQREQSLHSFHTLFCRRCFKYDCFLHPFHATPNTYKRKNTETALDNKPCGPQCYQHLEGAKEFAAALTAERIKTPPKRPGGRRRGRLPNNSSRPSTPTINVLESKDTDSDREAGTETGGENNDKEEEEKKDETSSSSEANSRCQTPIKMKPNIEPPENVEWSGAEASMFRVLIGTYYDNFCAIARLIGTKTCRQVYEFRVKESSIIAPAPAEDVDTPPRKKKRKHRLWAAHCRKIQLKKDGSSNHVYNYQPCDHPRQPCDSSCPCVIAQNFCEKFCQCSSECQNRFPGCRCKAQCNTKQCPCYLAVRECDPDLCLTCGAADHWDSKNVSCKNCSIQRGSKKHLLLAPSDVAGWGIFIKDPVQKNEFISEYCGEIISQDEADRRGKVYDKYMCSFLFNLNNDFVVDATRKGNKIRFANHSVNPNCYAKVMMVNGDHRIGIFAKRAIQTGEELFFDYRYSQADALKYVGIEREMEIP", "assay": "Binding affinity to EZH2 (unknown origin)"}, "[8]": {"assay": "Antiproliferative activity against human SK-N-BE2 cells after 72 hrs by CyQUANT reagent based assay relative to control", "type": "functional", "conditions": "SKNBE2"}, "[9]": {"assay": "cells", "conditions": "Homo sapiens, SKNBE2, 72 h"}, "[10]": {"biological_target": "T2, Androgen receptor (Homo sapiens, UniProt P10275)", "T2 sequence (P10275 whole entry)": "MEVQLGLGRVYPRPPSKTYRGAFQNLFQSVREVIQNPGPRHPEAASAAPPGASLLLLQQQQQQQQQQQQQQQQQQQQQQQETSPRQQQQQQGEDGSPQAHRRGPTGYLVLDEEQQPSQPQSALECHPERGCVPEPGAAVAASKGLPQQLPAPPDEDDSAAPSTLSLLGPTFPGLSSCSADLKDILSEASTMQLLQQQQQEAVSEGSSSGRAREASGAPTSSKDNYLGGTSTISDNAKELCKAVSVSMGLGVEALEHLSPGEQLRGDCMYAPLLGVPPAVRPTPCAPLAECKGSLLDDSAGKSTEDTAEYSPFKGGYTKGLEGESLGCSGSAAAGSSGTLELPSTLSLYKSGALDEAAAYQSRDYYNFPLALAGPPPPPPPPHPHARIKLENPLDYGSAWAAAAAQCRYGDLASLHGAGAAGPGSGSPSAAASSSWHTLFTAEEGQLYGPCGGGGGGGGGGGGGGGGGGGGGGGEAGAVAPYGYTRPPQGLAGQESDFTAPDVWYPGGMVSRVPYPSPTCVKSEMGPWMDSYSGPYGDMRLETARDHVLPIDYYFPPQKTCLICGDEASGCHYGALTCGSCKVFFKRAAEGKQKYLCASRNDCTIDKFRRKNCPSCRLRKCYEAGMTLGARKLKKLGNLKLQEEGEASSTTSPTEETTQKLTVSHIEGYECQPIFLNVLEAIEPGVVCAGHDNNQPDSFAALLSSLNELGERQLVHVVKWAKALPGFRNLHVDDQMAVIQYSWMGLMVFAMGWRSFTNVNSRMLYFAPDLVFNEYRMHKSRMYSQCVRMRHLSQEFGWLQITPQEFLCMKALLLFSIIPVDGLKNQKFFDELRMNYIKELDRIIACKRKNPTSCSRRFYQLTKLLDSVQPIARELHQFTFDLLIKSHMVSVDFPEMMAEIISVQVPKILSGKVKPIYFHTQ", "assay": "Inhibition of androgen receptor LBD domain (unknown origin)"}, "[11]": {"assay": "Selectivity ratio of IC50 for human IOSE144 cells to IC50 for human OVCAR3 cells", "type": "functional"}, "[12]": {"test_system": "A2780", "assay": "Growth inhibition of human A2780 cells incubated for 48 hrs by MTT assay", "type": "functional, cell-based", "conditions": "A2780, 48 h"}, "[13]": {"test_system": "OVCAR-3", "assay": "Growth inhibition of human OVCAR3 cells incubated for 48 hrs by MTT assay", "type": "functional, cell-based", "conditions": "OVCAR-3, 48 h"}, "[14]": {"assay": "Selectivity ratio of IC50 for human IOSE144 cells to IC50 for human A2780 cells", "type": "functional"}, "[15]": {"biological_target": "Tyrosine-protein kinase JAK1 (Homo sapiens, UniProt P23458)", "assay": "Inhibition of human JAK1 using 5FAM-KKSRGDYMTMQID as substrate by caliper microfluidic mobility shift assay"}, "[16]": {"biological_target": "T3, Tyrosine-protein kinase JAK3 (Homo sapiens, UniProt P52333)", "T3 sequence (P52333 whole entry)": "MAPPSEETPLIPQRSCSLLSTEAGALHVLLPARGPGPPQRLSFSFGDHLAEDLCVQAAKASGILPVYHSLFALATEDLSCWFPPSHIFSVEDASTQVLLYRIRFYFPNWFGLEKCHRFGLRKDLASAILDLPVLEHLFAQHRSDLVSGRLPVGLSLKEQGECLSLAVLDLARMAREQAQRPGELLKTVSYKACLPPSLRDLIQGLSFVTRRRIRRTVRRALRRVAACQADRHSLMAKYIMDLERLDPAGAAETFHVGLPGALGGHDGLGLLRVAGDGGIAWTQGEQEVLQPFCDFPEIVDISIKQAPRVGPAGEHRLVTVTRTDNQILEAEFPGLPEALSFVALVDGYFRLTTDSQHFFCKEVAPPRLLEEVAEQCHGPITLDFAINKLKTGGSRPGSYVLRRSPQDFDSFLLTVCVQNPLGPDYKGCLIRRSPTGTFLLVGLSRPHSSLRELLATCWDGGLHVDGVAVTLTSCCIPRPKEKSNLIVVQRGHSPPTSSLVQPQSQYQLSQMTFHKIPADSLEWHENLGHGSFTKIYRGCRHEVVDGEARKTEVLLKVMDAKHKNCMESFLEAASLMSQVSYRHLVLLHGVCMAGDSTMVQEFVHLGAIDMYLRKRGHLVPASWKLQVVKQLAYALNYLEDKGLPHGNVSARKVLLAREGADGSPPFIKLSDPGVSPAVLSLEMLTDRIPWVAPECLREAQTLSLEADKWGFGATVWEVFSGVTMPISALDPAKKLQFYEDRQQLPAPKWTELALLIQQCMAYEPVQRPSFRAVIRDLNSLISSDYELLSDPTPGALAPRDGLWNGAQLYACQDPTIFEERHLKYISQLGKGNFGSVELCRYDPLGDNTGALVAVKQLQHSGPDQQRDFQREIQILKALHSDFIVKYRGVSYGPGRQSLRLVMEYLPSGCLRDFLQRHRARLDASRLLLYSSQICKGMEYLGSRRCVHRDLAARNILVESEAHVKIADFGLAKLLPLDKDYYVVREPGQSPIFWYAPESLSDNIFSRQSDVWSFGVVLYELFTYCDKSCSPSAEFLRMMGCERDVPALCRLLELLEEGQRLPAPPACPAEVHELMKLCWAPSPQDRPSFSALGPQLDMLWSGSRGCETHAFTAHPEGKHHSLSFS", "assay": "Inhibition of human JAK3 using FITC-KGGEEEEYFELVKK as substrate by caliper microfluidic mobility shift assay"}, "[17]": {"biological_target": "Tyrosine-protein kinase JAK2 (Homo sapiens, UniProt O60674)", "sequence (O60674 whole entry)": "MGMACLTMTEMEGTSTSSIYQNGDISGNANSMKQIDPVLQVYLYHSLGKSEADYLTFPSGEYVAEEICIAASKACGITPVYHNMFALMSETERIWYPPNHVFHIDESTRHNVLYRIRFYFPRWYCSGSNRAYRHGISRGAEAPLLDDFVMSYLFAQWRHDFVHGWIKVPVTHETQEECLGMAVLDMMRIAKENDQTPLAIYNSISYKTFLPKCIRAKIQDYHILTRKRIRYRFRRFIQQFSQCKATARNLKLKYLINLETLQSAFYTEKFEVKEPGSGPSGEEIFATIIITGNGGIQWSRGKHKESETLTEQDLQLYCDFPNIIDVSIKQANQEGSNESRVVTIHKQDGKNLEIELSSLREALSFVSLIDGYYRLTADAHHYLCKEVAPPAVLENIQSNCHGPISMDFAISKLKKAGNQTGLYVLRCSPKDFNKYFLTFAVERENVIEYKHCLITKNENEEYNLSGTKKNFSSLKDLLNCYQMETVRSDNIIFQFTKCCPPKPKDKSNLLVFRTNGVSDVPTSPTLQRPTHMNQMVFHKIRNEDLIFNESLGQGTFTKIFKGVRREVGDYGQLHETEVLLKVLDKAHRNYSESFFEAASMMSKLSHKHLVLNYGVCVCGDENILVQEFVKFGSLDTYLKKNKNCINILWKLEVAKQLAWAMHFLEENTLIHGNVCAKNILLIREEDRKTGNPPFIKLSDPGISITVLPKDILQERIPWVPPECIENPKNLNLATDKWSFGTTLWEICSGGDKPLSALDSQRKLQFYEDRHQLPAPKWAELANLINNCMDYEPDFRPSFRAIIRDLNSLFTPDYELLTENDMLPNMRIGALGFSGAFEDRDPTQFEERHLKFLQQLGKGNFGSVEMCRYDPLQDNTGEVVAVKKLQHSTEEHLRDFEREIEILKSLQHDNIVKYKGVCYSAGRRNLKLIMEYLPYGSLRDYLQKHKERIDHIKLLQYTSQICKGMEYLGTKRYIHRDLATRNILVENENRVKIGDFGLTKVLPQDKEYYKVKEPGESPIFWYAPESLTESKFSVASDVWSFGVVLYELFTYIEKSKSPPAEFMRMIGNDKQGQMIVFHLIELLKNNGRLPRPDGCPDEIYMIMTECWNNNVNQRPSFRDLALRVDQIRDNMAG", "assay": "Inhibition of human JAK2 using FITC-KGGEEEEYFELVKK as substrate by caliper microfluidic mobility shift assay"}, "[18]": {"biological_target": "Non-receptor tyrosine-protein kinase TYK2 (Homo sapiens, UniProt P29597)", "assay": "Inhibition of human TYK2 using 5FAM-KKSRGDYMTMQID as substrate by caliper microfluidic mobility shift assay"}, "[19]": {"assay": "Downregulation of JAK3 mRNA expression in human PBMC at 1 uM after 22 hrs by qPCR analysis relative to control", "type": "functional"}, "[20]": {"assay": "Downregulation of JAK2 mRNA expression in human PBMC at 1 uM after 22 hrs by qPCR analysis relative to control", "type": "functional"}, "[21]": {"biological_target": "Leucine-rich repeat serine/threonine-protein kinase 2 (Homo sapiens, UniProt Q5S007, G2019S)", "sequence (Q5S007 whole entry G2019S)": "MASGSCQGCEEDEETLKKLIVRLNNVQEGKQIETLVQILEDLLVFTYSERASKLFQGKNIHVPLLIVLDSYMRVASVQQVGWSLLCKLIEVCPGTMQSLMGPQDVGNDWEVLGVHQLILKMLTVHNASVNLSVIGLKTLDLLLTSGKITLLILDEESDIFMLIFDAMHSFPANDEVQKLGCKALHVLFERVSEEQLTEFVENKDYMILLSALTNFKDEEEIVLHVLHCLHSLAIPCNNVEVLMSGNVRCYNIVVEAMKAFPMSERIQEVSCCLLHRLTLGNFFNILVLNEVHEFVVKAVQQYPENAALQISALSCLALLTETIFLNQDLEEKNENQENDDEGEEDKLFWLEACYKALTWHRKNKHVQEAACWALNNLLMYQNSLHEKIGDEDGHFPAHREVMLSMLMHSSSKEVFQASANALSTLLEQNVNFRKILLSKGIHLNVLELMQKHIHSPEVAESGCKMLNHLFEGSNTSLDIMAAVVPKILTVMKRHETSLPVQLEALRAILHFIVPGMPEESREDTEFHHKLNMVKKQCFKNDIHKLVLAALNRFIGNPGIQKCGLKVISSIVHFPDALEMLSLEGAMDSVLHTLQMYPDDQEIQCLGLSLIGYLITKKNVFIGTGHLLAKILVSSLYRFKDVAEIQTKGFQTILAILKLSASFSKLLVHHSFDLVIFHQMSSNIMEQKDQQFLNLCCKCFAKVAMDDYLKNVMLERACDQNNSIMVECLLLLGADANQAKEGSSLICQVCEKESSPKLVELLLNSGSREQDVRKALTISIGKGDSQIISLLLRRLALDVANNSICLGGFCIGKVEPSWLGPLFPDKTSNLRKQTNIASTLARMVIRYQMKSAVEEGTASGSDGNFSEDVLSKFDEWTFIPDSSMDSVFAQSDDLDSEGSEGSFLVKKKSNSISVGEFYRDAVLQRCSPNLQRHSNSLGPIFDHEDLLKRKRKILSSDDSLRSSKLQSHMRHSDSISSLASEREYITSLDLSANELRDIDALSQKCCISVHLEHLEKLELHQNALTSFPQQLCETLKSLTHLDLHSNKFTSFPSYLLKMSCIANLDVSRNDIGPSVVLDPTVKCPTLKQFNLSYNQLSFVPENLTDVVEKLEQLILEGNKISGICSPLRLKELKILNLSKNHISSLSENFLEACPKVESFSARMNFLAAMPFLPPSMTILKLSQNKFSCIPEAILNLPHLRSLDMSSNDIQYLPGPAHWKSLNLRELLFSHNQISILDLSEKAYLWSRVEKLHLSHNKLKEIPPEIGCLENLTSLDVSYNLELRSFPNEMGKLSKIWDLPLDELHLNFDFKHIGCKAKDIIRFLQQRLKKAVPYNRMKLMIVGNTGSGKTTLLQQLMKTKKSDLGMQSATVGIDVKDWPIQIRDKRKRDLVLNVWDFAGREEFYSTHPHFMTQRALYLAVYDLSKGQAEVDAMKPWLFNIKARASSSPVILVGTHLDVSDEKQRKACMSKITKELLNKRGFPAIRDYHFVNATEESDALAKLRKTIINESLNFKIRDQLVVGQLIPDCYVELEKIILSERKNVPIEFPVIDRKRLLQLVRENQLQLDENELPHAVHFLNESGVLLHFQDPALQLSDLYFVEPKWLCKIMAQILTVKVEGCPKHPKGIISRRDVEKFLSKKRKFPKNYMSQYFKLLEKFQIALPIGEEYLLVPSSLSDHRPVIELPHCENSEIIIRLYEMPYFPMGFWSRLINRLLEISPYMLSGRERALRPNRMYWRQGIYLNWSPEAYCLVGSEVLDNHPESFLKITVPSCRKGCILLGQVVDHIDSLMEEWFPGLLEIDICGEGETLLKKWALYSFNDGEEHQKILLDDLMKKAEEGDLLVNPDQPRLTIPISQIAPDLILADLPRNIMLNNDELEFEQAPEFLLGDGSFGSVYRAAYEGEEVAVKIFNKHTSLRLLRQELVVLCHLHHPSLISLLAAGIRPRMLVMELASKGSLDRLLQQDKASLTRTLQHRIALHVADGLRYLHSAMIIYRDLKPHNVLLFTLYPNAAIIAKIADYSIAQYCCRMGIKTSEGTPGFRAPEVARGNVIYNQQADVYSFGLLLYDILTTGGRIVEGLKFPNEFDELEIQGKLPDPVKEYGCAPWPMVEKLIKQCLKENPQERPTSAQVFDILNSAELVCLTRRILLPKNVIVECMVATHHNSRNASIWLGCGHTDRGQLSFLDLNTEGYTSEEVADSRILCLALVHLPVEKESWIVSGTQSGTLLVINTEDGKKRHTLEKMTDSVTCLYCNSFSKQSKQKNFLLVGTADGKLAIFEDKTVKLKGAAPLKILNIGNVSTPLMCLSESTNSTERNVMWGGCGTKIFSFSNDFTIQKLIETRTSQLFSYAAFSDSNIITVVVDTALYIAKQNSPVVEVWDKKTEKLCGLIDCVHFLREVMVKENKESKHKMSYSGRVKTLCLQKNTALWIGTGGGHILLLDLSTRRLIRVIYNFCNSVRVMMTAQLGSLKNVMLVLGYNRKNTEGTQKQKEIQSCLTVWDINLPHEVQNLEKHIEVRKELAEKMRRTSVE", "assay": "Inhibition of LRRK2 G2019S mutant (unknown origin)"}},
  "note": "Square brackets hold non-standard residues; d marks the D form. Peptide text beside a SMILES is read from it. Dip = N[C@H](C(=O)O)C(c1ccccc1)c1ccccc1; Chg = N[C@H](C(=O)O)C1CCCCC1; NMeA = CN[C@@H](C)C(=O)O",
  "data": [
    {"smiles": "CN[C@@H](C)C(=O)N[C@H](C(=O)N1CCC[C@H]1C(=O)N[C@H](C(=O)OC)C(c1ccccc1)c1ccccc1)C1CCCCC1", "note": "(H-[NMeA][Chg]P[Dip]-OMe)", "values": [
      {"measurement": "Kd", "setting": "[1]", "result": 0.006, "unit": "µM"},
      {"measurement": "Kd", "setting": "[2]", "result": 0.016, "unit": "µM"}
    ]},
    {"smiles": "Cc1cc(C)n(-c2ncc(Cl)c(Nc3ccc(Cl)cc3)n2)n1", "values": [
      {"measurement": "IC50", "setting": "[3]", "result": 18, "unit": "µM"}
    ]},
    {"smiles": "CNC(=O)COc1cc2cc(Nc3nc(N4C[C@H](C)C[C@H](C)C4)ncc3Cl)cc(OC)c2n(C)c1=O", "values": [
      {"measurement": "Activity", "setting": "[4]", "result": 50, "unit": "%"},
      {"measurement": "Activity", "setting": "[5]", "result": "> 90", "unit": "%"},
      {"measurement": "IC50", "setting": "[6]", "result": 0.003, "unit": "µM"}
    ]},
    {"smiles": "CNC(=O)COc1cc2cc(Nc3nc(N4CCC(C(=O)N(C)C)CC4)ncc3Cl)cc(OC)c2n(C)c1=O", "values": [
      {"measurement": "Activity", "setting": "[4]", "result": 50, "unit": "%"},
      {"measurement": "Activity", "setting": "[5]", "result": "> 90", "unit": "%"}
    ]},
    {"smiles": "CCOCCNC(=O)/C(C)=C/CC12OC(C)(C)C3CC(C=C4C(=O)c5c(O)c(C/C=C(\\C)CCC=C(C)C)c(O)c(CC=C(C)C)c5OC431)C2=O", "note": "(stereo unspecified)", "values": [
      {"measurement": "Kd", "setting": "[7]", "result": 0.116, "unit": "µM"}
    ]},
    {"smiles": "O=C(Nc1ccc(Nc2nccc(Nc3cc(C4CCCC4)[nH]n3)n2)cc1)Nc1cccc(C(F)(F)F)c1", "values": [
      {"measurement": "Emax", "setting": "[8]", "result": 14, "unit": "%"},
      {"measurement": "EC50", "setting": "[9]", "result": 0.223, "unit": "µM"}
    ]},
    {"smiles": "COc1cc(Nc2ncc3c(n2)-c2ccc(Cl)cc2C(c2c(F)cccc2OC)=NC3)ccc1C(=O)O", "note": "[ALISERTIB]", "values": [
      {"measurement": "Emax", "setting": "[8]", "result": 37, "unit": "%"}
    ]},
    {"smiles": "CC(=O)N1CCN(CCOc2ccc(C3CCN(C4=Nn5c(nnc5C(F)(F)F)CC4)CC3)cc2)CC1", "note": "[AZD3514]", "values": [
      {"measurement": "Ki", "setting": "[10]", "result": 5, "unit": "µM"}
    ]},
    {"smiles": "C[C@H]1[C@@H](O)O[C@@H]2O[C@@]3(C)CC[C@H]4[C@H](C)CC[C@@H]1[C@@]24OO3", "note": "[ARTENIMOL]", "values": [
      {"measurement": "Ratio IC50", "setting": "[11]", "result": 5},
      {"measurement": "IC50", "setting": "[12]", "result": 1, "unit": "µM"},
      {"measurement": "IC50", "setting": "[13]", "result": 1, "unit": "µM"},
      {"measurement": "Ratio IC50", "setting": "[14]", "result": 5}
    ]},
    {"smiles": "C[C@@H]1CCN(C(=O)N2CCCC2)C[C@@H]1N(C)c1ncnc2[nH]ccc12", "values": [
      {"measurement": "IC50", "setting": "[15]", "result": 0.0075, "unit": "µM"},
      {"measurement": "IC50", "setting": "[16]", "result": 0.0028, "unit": "µM"},
      {"measurement": "IC50", "setting": "[17]", "result": 0.0071, "unit": "µM"},
      {"measurement": "IC50", "setting": "[18]", "result": 0.128, "unit": "µM"},
      {"measurement": "Activity", "setting": "[19]", "result": 50, "unit": "%"},
      {"measurement": "Activity", "setting": "[20]", "result": 50, "unit": "%"}
    ]},
    {"smiles": "CCNc1nc(Nc2cc(F)c(C(=O)N3CCOCC3)cc2OC)ncc1C(F)(F)F", "values": [
      {"measurement": "Ki", "setting": "[21]", "result": 0.001, "unit": "µM"}
    ]},
    {"smiles": "CNc1nc(Nc2cn(C(C)(C)C#N)nc2C)ncc1C(F)(F)F", "note": "[DNL-201]", "values": [
      {"measurement": "Ki", "setting": "[21]", "result": 0.0006, "unit": "µM"}
    ]},
    {"smiles": "CC(C)=CCC/C(C)=C/Cc1c(O)c(CC=C(C)C)c2c(c1O)C(=O)C1=CC3CC4C(C)(C)OC(C/C=C(\\C)C(=O)O)(C3=O)C14O2", "note": "(stereo unspecified)", "values": [
      {"measurement": "Kd", "setting": "[7]", "result": 0.182, "unit": "µM"}
    ]}
  ]
}
